According to paper PMC5730604:
Like-named read-outs stand apart in the source and are kept apart here. Positions of bridges follow the written chain, without caps; N, C: chain ends. Non-standard residues stand in square brackets, D forms with d. Residues, ends and D or L forms follow the SMILES beside them. Chains are numbered I, II in the order given. *: point of attachment. PEG28 = NCCOCCOCCOCCOCCOCCOCCOCCOCCOCCOCCOCCOCCOCCOCCOCCOCCOCCOCCOCCOCCOCCOCCOCCOCCOCCOCCOCCOCCC(=O)O; Tyr(3-NO2) = N[C@@H](Cc1ccc(O)c([N+](=O)[O-])c1)C(=O)O; Biotin = O=C1N[C@H]2[C@H](CS[C@H]2CCCCC(=O)*)N1; Hyp = O=C(O)[C@@H]1C[C@@H](O)CN1; For = O=C*

Columns and labels:
integrin α3 = target: T1, integrin α3 (Homo sapiens, UniProt P26006); test: Displacement of anti-CD49c-PE conjugate (flow cytometry); format: binding; conditions: increasing peptide concentrations, 2 mM MnCl2, 30 min on ice, flow cytometry (PE channel)
T1 construct: endogenous in cells
T1 sequence (P26006 33-872 limits assumed): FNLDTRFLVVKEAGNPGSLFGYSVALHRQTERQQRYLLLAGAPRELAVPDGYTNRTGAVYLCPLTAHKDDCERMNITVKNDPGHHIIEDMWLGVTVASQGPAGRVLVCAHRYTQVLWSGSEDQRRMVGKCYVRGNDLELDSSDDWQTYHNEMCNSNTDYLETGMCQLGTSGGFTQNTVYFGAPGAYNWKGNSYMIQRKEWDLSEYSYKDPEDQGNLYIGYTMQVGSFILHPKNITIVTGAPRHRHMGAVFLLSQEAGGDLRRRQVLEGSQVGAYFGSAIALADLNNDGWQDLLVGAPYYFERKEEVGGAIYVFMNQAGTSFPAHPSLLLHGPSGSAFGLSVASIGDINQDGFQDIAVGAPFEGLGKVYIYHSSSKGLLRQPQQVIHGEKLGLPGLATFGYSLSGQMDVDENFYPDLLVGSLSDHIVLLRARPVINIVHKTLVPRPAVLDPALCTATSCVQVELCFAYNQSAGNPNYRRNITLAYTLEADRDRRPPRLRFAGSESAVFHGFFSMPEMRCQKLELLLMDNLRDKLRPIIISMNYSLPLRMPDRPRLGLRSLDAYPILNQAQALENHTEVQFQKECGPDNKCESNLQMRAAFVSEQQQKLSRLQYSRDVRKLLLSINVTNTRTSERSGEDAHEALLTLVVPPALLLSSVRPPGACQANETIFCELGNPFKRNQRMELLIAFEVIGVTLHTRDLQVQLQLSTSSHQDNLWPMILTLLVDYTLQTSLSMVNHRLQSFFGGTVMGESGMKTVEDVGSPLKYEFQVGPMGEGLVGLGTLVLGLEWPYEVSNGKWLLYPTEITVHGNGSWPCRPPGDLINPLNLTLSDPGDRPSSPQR
T1 sequence (P26006 876-1051 partner limits assumed): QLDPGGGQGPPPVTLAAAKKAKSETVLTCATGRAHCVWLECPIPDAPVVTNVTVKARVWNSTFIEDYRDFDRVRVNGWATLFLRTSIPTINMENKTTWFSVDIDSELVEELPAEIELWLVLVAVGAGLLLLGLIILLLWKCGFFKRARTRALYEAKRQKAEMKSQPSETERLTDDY
T1 sequence (P05556 21-798 partner): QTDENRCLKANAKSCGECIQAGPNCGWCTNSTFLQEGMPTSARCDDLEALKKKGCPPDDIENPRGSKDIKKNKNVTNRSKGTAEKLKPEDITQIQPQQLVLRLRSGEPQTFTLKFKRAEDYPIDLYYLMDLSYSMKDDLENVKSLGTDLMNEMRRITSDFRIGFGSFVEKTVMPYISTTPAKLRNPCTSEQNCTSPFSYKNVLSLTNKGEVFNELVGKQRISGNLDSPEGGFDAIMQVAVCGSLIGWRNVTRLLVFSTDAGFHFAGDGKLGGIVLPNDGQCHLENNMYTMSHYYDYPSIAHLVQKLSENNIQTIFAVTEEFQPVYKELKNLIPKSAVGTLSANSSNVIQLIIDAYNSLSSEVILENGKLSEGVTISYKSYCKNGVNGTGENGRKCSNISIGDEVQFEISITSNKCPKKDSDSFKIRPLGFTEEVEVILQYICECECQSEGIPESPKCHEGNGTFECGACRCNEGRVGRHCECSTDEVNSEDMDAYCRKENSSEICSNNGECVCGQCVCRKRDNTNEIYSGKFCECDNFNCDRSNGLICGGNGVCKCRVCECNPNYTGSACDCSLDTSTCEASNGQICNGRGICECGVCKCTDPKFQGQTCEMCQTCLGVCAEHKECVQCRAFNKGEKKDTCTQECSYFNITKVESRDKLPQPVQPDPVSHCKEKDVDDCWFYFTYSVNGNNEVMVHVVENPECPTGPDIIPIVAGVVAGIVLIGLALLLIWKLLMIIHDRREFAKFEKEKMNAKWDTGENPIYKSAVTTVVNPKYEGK

primary lymphocytes = test: Flow cytometry binding to cells; conditions: 1 µM biotinylated peptide; also: key: ++: Strong binding; +: medium binding; +/−: weak binding; −: no binding
4T1 = conditions: Table S1; mouse; flow cytometry, 1 µM biotinylated peptide, 2 mM MnCl2, on ice
Method: (§26) from DSMZ or LGC and cultured according to the distributors’ guidelines. Human, murine or
(§27) guinea pig leukocytes or macrophages were isolated and cultured as described below. Cells
(§28) growing in monolayers were detached using trypsin/EDTA and then re- suspended in complete
(§29) culture medium. After washing with washing buffer (W B: 0.9% NaCl, 10 mM Hepes, pH 7.3) at
(§30) 4°C, cells were re-suspended at 2x10^6 cells/ml in peptide blocking b uf f er ( PBB: 0.9% NaCl,
(§31) 10 m M H epes, pH 7.3, 5 m M KCl , 3% BSA, 5% FCS) and incubated for 10 minutes on ice
(§32) concentration in PBB were added to equal volumes of aliquots of 1x10^5 cells, and were
(§33) incubated f or 30 min on ice with repeated shaking to keep the cells in suspension. Except
(§34) three times wit h 1 ml W B, followed by incubation with streptavidin labeled wit h PerCP-Cy5.5
(§35) (BD Biosciences, 200 µg/ml; diluted 1:400 in PBB) for 15 min on ice. After one additional
(§36) wa s h ing step with phosphate- buffered saline (PBS) at 4°C, samples were re-suspended in
(§37) PBS with Hoechst 33258 solution (0.5 µg/ml) and analyzed using a F ACS Canto system ( at
(§38) least 1x10^4 cells per sample were counted). Evaluations were performed using FloJo software. […]
(§39) indicated cases the geometrical mean f luorescence was recorded. […]
(§40) which half-maximum binding intensity was reached (KD) was calculated using Origin 9.0 […]

GPC-16 = test: Flow cytometry binding to cells; design: key to the marks not given beside the values; conditions: 1 µM biotinylated peptide
MDA-MB-231 = test: Flow cytometry binding to cells; design: key: ++: strong binding; +: m edium binding; +/-: weak or heterogeneous binding; -: no binding; conditions: Table S1, human, 1 µM biotinylated peptide, 2 mM MnCl2, on ice
PC-3 or A431 cells = conditions: 37 °C, streptavidin staining, flow cytometry
Method: washed as described above and then re-suspended in Eagle’s minimum essential medium
incubated on ice or at 37°C. At different time points after washing 50 µl samples were taken
and added to 50 µl of Streptavidin- PerCP-Cy5.5 (diluted 1:200), incubated on ice f or 15 min,
washed with PBS, and analyzed in PBS with Hoechst solution. Fluorescent signals were
plotted against time between washing and streptavidin addition.
over time after incubation on ice and at 37°C.
labeled streptavidin as described previously f or flow cytometry assays.

H MC-1 = test: Flow cytometry binding to cells; conditions: Table S1, human, 1 µM biotinylated peptide, 2 mM MnCl2, on ice; also: key: ++: Strong binding; +: medium binding; +/−: weak binding; −: no binding
K562 = test: Flow cytometry binding to cells; design: species or system Human; conditions: 1 µM biotinylated peptide; also: key: ++: Strong binding; +: medium binding; +/−: weak binding; −: no binding
HUVEC = test: Flow cytometry binding to cells; design: species or system Human; conditions: 1 µM biotinylated peptide
primary leukocytes = test: Flow cytometry binding to cells; conditions: 1 µM biotinylated peptide; also: key: ++: Strong binding; +: medium binding; +/−: weak binding; −: no binding
primary macrophages 7d = test: Flow cytometry binding to cells; conditions: 1 µM biotinylated peptide; also: key: ++: Strong binding; +: medium binding; +/−: weak binding; −: no binding
NIH-3T3 = conditions: mouse, flow cytometry, 1 µM biotinylated peptide
Method: as §26, §27, §28, §29, §30, §31, §32, §33, §34, §35, §36, §37
least 1x10^4 cells per sample were counted). Evaluations were performed using FloJo software.
W hole cells were gated i n a FSC/SSC plot and live gating was based on Hoechst exclusion.
After gating out debris, aggregates and dead cells, overlay histograms in the PerCP-Cy5.5
indicated cases the geometrical mean f luorescence was recorded.
For determining binding affinity, a rang e of concentrations of the biotinylated compound was
tested and the f luorescent signals were plotted against concentration. The concentration at
which half-maximum binding intensity was reached (KD) was calculated using Origin 9.0
sof tware and a “one site specif ic binding” fit (y =(Bmax* x) /(KD+x) ).
f luorescent signals were plotted against competitor concentration. The concentration at which

E0771 = conditions: Table S1; mouse; flow cytometry, 1 µM biotinylated peptide, 2 mM MnCl2, on ice
Method: as §26, §27, §28, §29, §30, §31, §32, §33, §34, §35, §36, §37, §38, §39, §40

A431 = test: Flow cytometry binding to cells; design: species or system Human; key to the marks not given beside the values; conditions: 1 µM biotinylated peptide
L-929 = conditions: Table S1; mouse; flow cytometry, 1 µM biotinylated peptide, 2 mM MnCl2, on ice
Method: as §26, §27, §28, §29, §30, §31, §32, §33, §34, §35, §36, §37, §38, §39, §40

HeLa = test system: HeLa; design: key to the marks not given beside the values; conditions: Table S1; human; flow cytometry, 1 µM biotinylated peptide, 2 mM MnCl2, on ice
HT-29 = test: Flow cytometry binding to cells; design: key: ++: strong binding; +: m edium binding; +/-: weak or heterogeneous binding; -: no binding; conditions: Table S1, human, 1 µM biotinylated peptide, 2 mM MnCl2, on ice
primary granulocytes = test: Flow cytometry binding to cells; conditions: 1 µM biotinylated peptide; also: key: ++: Strong binding; +: medium binding; +/−: weak binding; −: no binding
U-87MG = test: Flow cytometry binding to cells; design: key: ++: strong binding; +: m edium binding; +/-: weak or heterogeneous binding; -: no binding; conditions: Table S1, human, 1 µM biotinylated peptide, 2 mM MnCl2, on ice
[1] = test system: primary macrophages 7 days; test: Flow cytometry binding to cells; conditions: 1 µM biotinylated peptide; as to binding to macrophages 7 days: key: ++: strong binding; +: m edium binding; +/-: weak or heterogeneous binding; -: no binding
PC-3 = test: Flow cytometry binding to cells; design: species or system Human; key to the marks not given beside the values; conditions: 1 µM biotinylated peptide
primary monocytes = test: Flow cytometry binding to cells; conditions: 1 µM biotinylated peptide; also: key: ++: Strong binding; +: medium binding; +/−: weak binding; −: no binding
human leukocytes = test: Chemotaxis assay; format: cell-based; conditions: compared with the non-PEGylated effector
Method: (§1) Human leukocytes were re-suspended in Hank ’s Buffered Saline Solution (HBSS, without
(§2) Ca2+, Mg 2+) with 10 mM Hepes pH 7.3 and 0.3% BSA at 10^7 cells/ml. Cells were pre-warmed
(§3) at 37°C for 20 min. After adding the effector dilutions in the lower compartment of 24-well plates
(§4) (800 µl/well), a Millicell culture plate insert with 5 µm pore size was placed in each well, f ollowed
(§5) by immediate addition of 200 µl (2 million) leuk ocytes. In one well, the cells were added without
(§6) a f ilter insert, allowing determination of the input number. The plate was incubated at 37°C and
(§7) 5% CO2 f or 45 min. 5 mM EDTA solution was added and the plate was incubated f or another
(§8) 10 min at 37 °C. […]
Phorbol
(§9) 12- m yr ist oyl 13-acetate (P MA , 3 µg/ml) was used as a positive control. All samples were f ixed
(§10) in 1% formaldehyde Hoechst 33258 solution (0.5 µg/ml) was added and cells were k ept on ice
(§11) until analysis using a FACS Canto system. After gating for live cells and granulocytes (human
(§12) cells) or non- lymphocytes (murine cells) in the FSC/SSC plot, rhodamine-positive cells were
(§13) identif ied in a PE/SSC plot, using an unstimulated sample as a reference.
(§14) Human monocytes, after an overnight pre- culture, were incubated f or 6 more hours in 1 ml
(§15) RPMI+10% FCS containing 100 nM F2- 2PEG, 0.1 ng/ml LPS (Sigma- Aldrich), or no stimulus.
(§16) All experiments were performed in duplicates. […]

human granulocytes = test: Oxidative burst (dihydro-rhodamine oxidation) assay; format: cell-based; conditions: compared with the non-PEGylated effector
Method: Activation of the oxidative burst (phagocyte NADPH oxidase) was measured using a
dihydrorhodamine (DHR, Molecular Probes) oxidation assay, based on a method described
previously1. In brief, 200 µl samples of human, murine or guinea pig leukocytes (1.25x 106
cells/ml in HHBS + 10 mM Hepes, pH 7.3, 0.3% BSA and 5 mM EDTA) were loaded with DHR
and catalase (Sigma-Aldrich) and cytochalasin B (Sigma-Aldrich) were added. Cells were pre-
incubated at 37°C for 10 min followed by the addition of 50 µl of effector dilutions (5x the
intended concentration) in the same buffer and another 15 min of incubation at 37°C. Phorbol
as §9, §10, §11, §12, §13, §14, §15, §16

mice = test: Immune activation assays (Figure S2C,D); format: cell-based, Mouse; conditions: compared with human cells
Method: as §1, §2, §3, §4, §5, §6, §7, §8
(§17) determined using a Neubauer chamber, or the numbers of transmigrated monocytes ,
(§18) granulocytes and lymphocytes were determined by flow cytometry (discriminating c e ll […]
(§19) 37°C and 5% CO2. Macrophages on the bottom side of the f ilter were counted. […]
(§20) J software, means and standard deviations were calculated and presented as absolute […]
(§21) Activation of the oxidative burst (phagocyte NADPH oxidase) was measured using a […]
(§22) 150 µl were stored at - 80 °C until cytokine levels were measured with commercially available
(§23) ELISA kits (Ready-set-go system, eBiosciences). […]
(§24) were measured and calculated based on the standards included wit hin the ELISA kits and as […]
(§25) analysis. Measured cytok ine levels were normalized to 1 (the average of the two unstimulated

guinea pigs = test: Immune activation assays (Figure S2C,D); format: cell-based, Guinea pig; conditions: compared with human cells
Method: as §1, §2, §3, §4, §5, §6, §7, §8, §17, §18, §19, §20, §21, §22, §23, §24, §25

[2] = Table S1, human, 2 mM MnCl2, on ice
[3] = human, 2 mM MnCl2, 30 min on ice, streptavidin-PerCP-Cy5.5
[4] = 2 mM MnCl2, 30 min on ice, streptavidin-PerCP-Cy5.5
[5] = Table S1, mouse, 2 mM MnCl2, on ice
[6] = mouse, 2 mM MnCl2, 30 min on ice, streptavidin-PerCP-Cy5.5

Compound: NC(=O)C[C@@H]1NC(=O)[C@@H]2C[C@@H](O)CN2C(=O)CNC(=O)[C@H](Cc2ccc(O)c([N+](=O)[O-])c2)NC(=O)CNC(=O)[C@@H](CC(=O)O)NC(=O)[C@H](N)CSSC[C@H](C(=O)O)NC1=O [B9] (H-[dC][dD]G[Tyr(3-NO2)]G[Hyp]N[dC]-OH; disulfide 1-8)
- displacement of anti-CD49c-PE conjugate (integrin α3): competes

Compound: CC[C@H](C)[C@H](NC(=O)[C@H](CCSC)NC(=O)CCCC[C@@H]1SC[C@@H]2NC(=O)N[C@@H]21)C(=O)N[C@@H](Cc1ccccc1)C(=O)N[C@@H](CC(C)C)C(=O)NCC(=O)NCC(=O)N[C@@H](CCCCNC(=O)CCOCCOCCOCCOCCOCCOCCOCCOCCOCCOCCOCCOCCOCCOCCOCCOCCOCCOCCOCCOCCOCCOCCOCCOCCOCCOCCOCCOCCNC(=O)[C@H]1CSSC[C@@H](N)C(=O)N[C@H](CC(=O)O)C(=O)NCC(=O)N[C@@H](Cc2ccc(O)c([N+](=O)[O-])c2)C(=O)NCC(=O)N2C[C@H](O)C[C@H]2C(=O)N[C@@H](CC(N)=O)C(=O)N1)C(=O)N[C@@H](CCCCNC(=O)CCOCCOCCOCCOCCOCCOCCOCCOCCOCCOCCOCCOCCOCCOCCOCCOCCOCCOCCOCCOCCOCCOCCOCCOCCOCCOCCOCCOCCNC(=O)[C@H]1CSSC[C@@H](N)C(=O)N[C@H](CC(=O)O)C(=O)NCC(=O)N[C@@H](Cc2ccc(O)c([N+](=O)[O-])c2)C(=O)NCC(=O)N2C[C@H](O)C[C@H]2C(=O)N[C@@H](CC(N)=O)C(=O)N1)C(=O)O [Biotin-Y9] (I: H-[dC][dD]G[Tyr(3-NO2)]G[Hyp]N[dC][PEG28] / II: H-[dC][dD]G[Tyr(3-NO2)]G[Hyp]N[dC][PEG28] / III: Biotin-MIFLGGKK-OH; disulfide I:1-I:8, II:1-II:8; amide I:C-III:7, II:C-III:8)
- binding to fresh lymphocytes (primary lymphocytes; [2]): -
- binding to primary lymphocytes (primary lymphocytes; [3]): −
- binding to 4T1 (4T1): ++
- binding to GPC-16 (GPC-16; Table S1, guinea pig, 2 mM MnCl2, on ice): ++
- binding to GPC-16 (GPC-16; guinea pig, 2 mM MnCl2, 30 min on ice, streptavidin-PerCP-Cy5.5): ++
- binding to MDA-MB-231 (MDA-MB-231): ++
- t1/2 on cell membranes (PC-3 or A431 cells): at least 15 minutes
- binding to H MC-1 (H MC-1): -
- binding to K562 (K562; [4]): −
- binding to K562 (K562; [2]): -
- binding to HUVEC (HUVEC; [4]): ++
- binding to HUVEC (HUVEC; [2]): ++
- binding to leukocytes (primary leukocytes; [5]): -
- binding to primary leukocytes (primary leukocytes; [6]): −
- binding to macrophages 7d (primary macrophages 7d; [5]): -
- binding to primary macrophages 7d (primary macrophages 7d; [6]): −
- binding to NIH-3T3 (NIH-3T3; Table S1, 2 mM MnCl2, on ice): +
- binding to NIH-3T3 (NIH-3T3; [4]): +
- binding to E0771 (E0771): +
- binding to A431 (A431; [4]): ++
- binding to A431 (A431; [2]): ++
- binding to L-929 (L-929): -
- binding to HeLa (HeLa): ++
- binding to HT-29 (HT-29): ++
- binding to fresh granulocytes (primary granulocytes; [2]): -
- binding to primary granulocytes (primary granulocytes; [3]): −
- binding to U-87MG (U-87MG): ++
- binding to macrophages 7 days [1, 2]: +/-
- binding to primary macrophages 7 days [1, 3]: +/−
- binding to PC-3 (PC-3; [4]): ++
- binding to PC-3 (PC-3; [2]): ++
- binding to fresh monocytes (primary monocytes; [2]): -
- binding to primary monocytes (primary monocytes; [3]): −

Compound: CSCC[C@H](NC=O)C(=O)N[C@@H](CC(C)C)C(=O)N[C@@H](Cc1ccccc1)C(=O)NCC(=O)NCC(=O)N[C@@H](CCCCNC(=O)CCOCCOCCOCCOCCOCCOCCOCCOCCOCCOCCOCCOCCOCCOCCOCCOCCOCCOCCOCCOCCOCCOCCOCCOCCOCCOCCOCCOCCN)C(=O)N[C@@H](CCCCNC(=O)CCOCCOCCOCCOCCOCCOCCOCCOCCOCCOCCOCCOCCOCCOCCOCCOCCOCCOCCOCCOCCOCCOCCOCCOCCOCCOCCOCCOCCN)C(=O)O [F1-2PEG] (For-MLFGGK(PEG28)K(PEG28)-OH)
- loss of potency to induce chemotaxis when linked to the PEG chains (human leukocytes): two
- loss of potency for neutrophil activation (superoxide production) when linked to the PEG chains (human granulocytes): two
- immune activation in mice (mice): less potent immune activators
- immune activation in guinea pigs (guinea pigs): less potent immune activators
